The nature of this data set: non-human primate toxicology studies. Particulars: up to 29 days and up to 500 mg/kg/day. The format is in vivo.

Turning to `CN1C(=O)[C@@H](NC(=O)c2nnc(Cc3ccccc3)[nH]2)COc2cccnc21` [RIPK1 Inhibitor, (S)-5-benzyl-N-(5-methyl-4-oxo-2,3,4,5-tetrahydropyrido[3,2-b][1,4]oxazepin-3-yl)-4H-1,2,4-triazole-3-carboxamide], the “safety concerns in toxicology studies” value is “did not raise any safety concerns”.

Values taken from patent US20230233576A1, “ECLITASERTIB FOR USE IN TREATING CONDITIONS INVOLVING SYSTEMIC HYPERINFLAMMATORY RESPONSE” (priority 2020, published 2023).
